Measurements taken from US8618095B2 (Rigel Pharmaceuticals, Inc., priority 2010, dated 2013).
Structures can show the parent of a compound that is named as a salt.

tested on: Human mast cells (CHMC); assay: LD Tryptase release assay in CHMC (mast cell activation induced by FcγR cross-linking); type: cell-based; conditions: Homo sapiens, Mast cell, anti-IgG stimulation, activity of tryptase released upon degranulation
Summary of the method: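 Mast cells derived from CD38-negative progenitors were preincubated 1 h at 37 °C with compound in HEPES-buffered saline (pH 7.4, 0.1% BSA, compound diluted in buffer with 2% MeOH/1% DMSO). Cells were then stimulated 60 min with anti-human IgG (final 1 μg/mL). Released tryptase was measured on Z-Ala-Lys-Arg-AMC (30 min, room temperature, 355/460 nm) to give the IC50.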

Row | SMILES | IC50 [nM]
1 | [2H]C1([2H])OC([2H])([2H])C([2H])([2H])N(c2ccc(Nc3ncc(F)c(Nc4ccc5c(n4)NC(=O)CO5)n3)cn2)C1([2H])[2H] [Compound 106, N4-(3,4-dihydro-3-oxo-2H-pyrido[3,2-b][1,4]oxazin-6-yl)-5-fluoro-N2-[6-(2,2,3,3,5,5,6,6-d8-morpholino)pyridin-3-yl]-2,4-pyrimidinediamine] | < 100
2 | CCOC1CCN(c2ccc(Nc3ncc(F)c(Nc4ccc5c(n4)NC(=O)C(C)(C)O5)n3)cn2)CC1 [Compound 54, N4-(2,2-dimethyl-3,4-dihydro-3-oxo-2H-pyrido[3,2-b][1,4]oxazin-6-yl)-5-fluoro-N2-[6-(4-ethoxypiperidin-1-yl)pyridin-3-yl]-2,4-pyrimidinediamine] | 1000 to 100000
3 | CC1(C)Oc2ccc(Nc3nc(Nc4ccc5ccncc5c4)ncc3F)nc2NC1=O [Compound 133, N4-(2,2-dimethyl-3,4-dihydro-3-oxo-2H-pyrido[3,2-b][1,4]oxazin-6-yl)-5-fluoro-N2-(isoquinolin-7-yl)-2,4-pyrimidinediamine] | < 100
4 | O=C1COc2ccc(Nc3nc(Nc4ccc(N5CCOCC5)nc4)ncc3F)nc2N1 [Compound 5, N4-(3,4-dihydro-3-oxo-2H-pyrido[3,2-b][1,4]oxazin-6-yl)-5-fluoro-N2-[6-morpholinopyridin-3-yl]-2,4-pyrimidinediamine] | 100 to 500
5 | CC1(C)CN(c2ccc(Nc3ncc(F)c(Nc4ccc5c(n4)NC(=O)CO5)n3)cn2)CCO1 [Compound 9, N4-(3,4-dihydro-3-oxo-2H-pyrido[3,2-b][1,4]oxazin-6-yl)-5-fluoro-N2-[6-(2,2-dimethylmorpholino)pyridin-3-yl]-2,4-pyrimidinediamine] | 100 to 500
6 | C[C@@H]1CN(c2ccc(Nc3ncc(F)c(Nc4ccc5c(n4)NC(=O)CO5)n3)cc2)C[C@H](C)O1 [Compound 35, rac-Cis-N4-(3,4-dihydro-3-oxo-2H-pyrido[3,2-b][1,4]oxazin-6-yl)-5-fluoro-N2-[4-(2,6-dimethylmorpholino)phenyl]-2,4-pyrimidinediamine] | 100 to 500
7 | COCC1CCN(c2ccc(Nc3ncc(F)c(Nc4ccc5c(n4)NC(=O)C(C)(C)O5)n3)cc2)CC1 [Compound 155, N4-(2,2-dimethyl-3,4-dihydro-3-oxo-2H-pyrido[3,2-b][1,4]oxazin-6-yl)-5-fluoro-N2-[4-(4-(methoxymethyl)piperidin-1-yl)phenyl]-2,4-pyrimidinediamine] | 100 to 500
8 | C[C@@H]1COCCN1c1ccc(Nc2ncc(F)c(Nc3ccc4c(n3)NC(=O)CO4)n2)cc1 [Compound 82] | 100 to 500
9 | COc1cc(Nc2ncc(F)c(Nc3ccc4c(n3)NC(=O)C(C)(C)O4)n2)ccc1C1CCOCC1 [Compound 48, N4-(2,2-dimethyl-3,4-dihydro-3-oxo-2H-pyrido[3,2-b][1,4]oxazin-6-yl)-5-fluoro-N2-[-3-methoxy-4-tetrahydropyranophenyl]-2,4-pyrimidinediamine] | 100 to 500
10 | O=C1COc2ccc(Nc3nc(Nc4ccc(N5CCCCC5)cc4)ncc3F)nc2N1 [Compound 83, N4-(3,4-dihydro-3-oxo-2H-pyrido[3,2-b][1,4]oxazin-6-yl)-5-fluoro-N2-[4-(piperidin-1-yl)phenyl]-2,4-pyrimidinediamine] | 100 to 500
11 | O=C1COc2ccc(Nc3nc(Nc4ccc(C5CCOCC5)cc4)ncc3F)nc2N1 [Compound 46, N4-(3,4-dihydro-3-oxo-2H-pyrido[3,2-b][1,4]oxazin-6-yl)-5-fluoro-N2-[4-tetrahydropyranophenyl]-2,4-pyrimidinediamine] | < 100
12 | CC1(C)Oc2ccc(Nc3nc(Nc4ccc(N5CCOCC5=O)cc4)ncc3F)nc2NC1=O [Compound 40, N4-(2,2-dimethyl-3,4-dihydro-3-oxo-2H-pyrido[3,2-b][1,4]oxazin-6-yl)-5-fluoro-N2-[4-(morpholin-2-one)phenyl]-2,4-pyrimidinediamine] | 100 to 500
13 | C[C@@H]1COCCN1c1ccc(Nc2ncc(F)c(Nc3ccc4c(n3)NC(=O)CO4)n2)cn1 [Compound 51, N4-(3,4-dihydro-3-oxo-2H-pyrido[3,2-b][1,4]oxazin-6-yl)-5-fluoro-N2-[6-((3R)-3-methylmorpholino)pyridin-3-yl]-2,4-pyrimidinediamine] | < 100
14 | CC1(C)Oc2ccc(Nc3nc(Nc4ccc(N5CCC6(CCOC6)CC5)cc4)ncc3F)nc2NC1=O [Compound 157, N4-(2,2-dimethyl-3,4-dihydro-3-oxo-2H-pyrido[3,2-b][1,4]oxazin-6-yl)-5-fluoro-N2-[4-(2-oxa-8-azaspiro[4.5]decan-8-yl)phenyl]-2,4-pyrimidinediamine] | 100 to 500
15 | Cc1cc(Nc2ncc(F)c(Nc3ccc4c(n3)NC(=O)C(C)(C)O4)n2)cnc1N1CCOC(C)(C)C1 [Compound 14, N4-(2,2-dimethyl-3,4-dihydro-3-oxo-2H-pyrido[3,2-b][1,4]oxazin-6-yl)-5-fluoro-N2-[5-methyl-6-(2,2-dimethylmorpholino)pyridin-3-yl]-2,4-pyrimidinediamine] | 500 to 1000
16 | CC1(C)Oc2ccc(Nc3nc(Nc4ccc(N5CCC(O)CC5)nc4)ncc3F)nc2NC1=O [Compound 52, N4-(2,2-dimethyl-3,4-dihydro-3-oxo-2H-pyrido[3,2-b][1,4]oxazin-6-yl)-5-fluoro-N2-[6-(4-hydroxypiperidin-1-yl)pyridin-3-yl]-2,4-pyrimidinediamine] | < 100
17 | CC1(C)CN(c2ccc(Nc3ncc(F)c(Nc4ccc5c(n4)NC(=O)C(C)(C)O5)n3)cc2)CCO1 [Compound 116, N4-(2,2-dimethyl-3,4-dihydro-3-oxo-2H-pyrido[3,2-b][1,4]oxazin-6-yl)-N2-[4-(2,2-dimethylmorpholino)phenyl]-5-fluoro-2,4-pyrimidinediamine] | < 100
18 | C[C@@H]1CN(c2ccc(Nc3ncc(F)c(Nc4ccc5c(n4)NC(=O)C(C)(C)O5)n3)cc2)CCO1 [Compound 118, N4-(2,2-dimethyl-3,4-dihydro-3-oxo-2H-pyrido[3,2-b][1,4]oxazin-6-yl)-5-fluoro-N2-[4-((2R)-2-methylmorpholino)phenyl]-2,4-pyrimidinediamine] | < 100
19 | CC1(C)Oc2ccc(Nc3nc(Nc4ccc(N5CCC(O)CC5)cc4)ncc3F)nc2NC1=O [Compound 77, N4-(2,2-dimethyl-3,4-dihydro-3-oxo-2H-pyrido[3,2-b][1,4]oxazin-6-yl)-5-fluoro-N2-[4-(4-hydroxypiperidin-1-yl)phenyl]-2,4-pyrimidinediamine] | < 100
20 | CC1(C)Oc2ccc(Nc3nc(Nc4ccc(N5CCOC5=O)cc4)ncc3F)nc2NC1=O [Compound 91, N4-(2,2-dimethyl-3,4-dihydro-3-oxo-2H-pyrido[3,2-b][1,4]oxazin-6-yl)-5-fluoro-N2-[4-(2-oxooxazolidin-3-yl)phenyl]-2,4-pyrimidinediamine] | < 100
21 | CC1(C)Oc2ccc(Nc3nc(Nc4ccc(N5CCCCC5)cc4)ncc3F)nc2NC1=O [Compound 78, N4-(2,2-dimethyl-3,4-dihydro-3-oxo-2H-pyrido[3,2-b][1,4]oxazin-6-yl)-5-fluoro-N2-[4-(piperidin-1-yl)phenyl]-2,4-pyrimidinediamine] | 1000 to 100000
22 | C[C@@H]1CN(c2ccc(Nc3ncc(F)c(Nc4ccc5c(n4)NC(=O)C(C)(C)O5)n3)cc2)C[C@H](C)O1 [Compound 36, rac-Cis-N4-(2,2-dimethyl-3,4-dihydro-3-oxo-2H-pyrido[3,2-b][1,4]oxazin-6-yl)-5-fluoro-N2-[4-(2,6-dimethylmorpholino)phenyl]-2,4-pyrimidinediamine] | 100 to 500
23 | CC1(C)CN(c2ncc(Nc3ncc(F)c(Nc4ccc5c(n4)NC(=O)C(C)(C)O5)n3)cc2F)CCO1 [Compound 15, N4-(2,2-dimethyl-3,4-dihydro-3-oxo-2H-pyrido[3,2-b][1,4]oxazin-6-yl)-5-fluoro-N2-[5-fluoro-6-(2,2-dimethylmorpholino)pyridin-3-yl]-2,4-pyrimidinediamine] | 1000 to 100000
24 | CC1(C)Oc2ccc(Nc3nc(Nc4ccc(N5CC[C@H](CO)C5)nc4)ncc3F)nc2NC1=O [Compound 71, N4-(2,2-dimethyl-3,4-dihydro-3-oxo-2H-pyrido[3,2-b][1,4]oxazin-6-yl)-5-fluoro-N2-[6-((3S)-3-(hydroxymethyl)pyrrolidin-1-yl)pyridin-3-yl]-2,4-pyrimidinediamine] | 100 to 500
25 | CC1(C)Oc2ccc(Nc3nc(Nc4ccc(N5CCC(O)C5)nc4)ncc3F)nc2NC1=O (stereo in doubt) [Compound 55, N4-(2,2-dimethyl-3,4-dihydro-3-oxo-2H-pyrido[3,2-b][1,4]oxazin-6-yl)-5-fluoro-N2-[6-((3R)-3-hydroxypyrrolidin-1-yl)pyridin-3-yl]-2,4-pyrimidinediamine] | < 100
26 | CCOC[C@@H]1CN(c2ccc(Nc3ncc(F)c(Nc4ccc5c(n4)NC(=O)CO5)n3)cn2)CCO1 [Compound 100, N4-(3,4-dihydro-3-oxo-2H-pyrido[3,2-b][1,4]oxazin-6-yl)-N2-[6-(((2S)-2-ethoxymethyl)morpholino)pyridin-3-yl]-5-fluoro-2,4-pyrimidinediamine] | 100 to 500
27 | CC1(C)Oc2ccc(Nc3nc(Nc4cnc(N5CCOCC5)c(F)c4)ncc3F)nc2NC1=O [Compound 10, N4-(2,2-dimethyl-3,4-dihydro-3-oxo-2H-pyrido[3,2-b][1,4]oxazin-6-yl)-5-fluoro-N2-[5-fluoro-6-morpholinopyridin-3-yl]-2,4-pyrimidinediamine] | 100 to 500
28 | C[C@@H]1CN(c2ccc(Nc3ncc(F)c(Nc4ccc5c(n4)NC(=O)C(C)(C)O5)n3)cn2)C[C@H](C)O1 [Compound 96, rac-Cis-N4-(2,2-dimethyl-3,4-dihydro-3-oxo-2H-pyrido[3,2-b][1,4]oxazin-6-yl)-N2-[6-(2,6-dimethylmorpholino)pyridin-3-yl]-5-fluoro-2,4-pyrimidinediamine] | 100 to 500

same assay, conditions: anti-IgG stimulation, activity of tryptase released upon degranulation

Row | SMILES | IC50 [nM]
29 | CC1(C)Oc2ccc(Nc3nc(Nc4ccc(N5CCOCC5)nc4)ncc3F)nc2NC1=O [Compound 139, N4-(2,2-dimethyl-3,4-dihydro-3-oxo-2H-pyrido[3,2-b][1,4]oxazin-6-yl)-5-fluoro-N2-[6-morpholinopyridin-3-yl]-2,4-pyrimidinediamine p-toluenesulfonic acid salt] | 500 to 1000
